Patent publication US9266813B2, “Stilbenoid compound as inhibitor for squamous carcinoma and hepatoma and uses thereof” (AnnCare Bio-Tech Center Inc., priority 2013, dated 2016)
Values after ≈ are worked out from the molar mass of the structure shown. Like-named read-outs stand apart in the source and are kept apart here.

Legend:
[1] = system: Human normal gingival fibroblasts cells (HGF); assay: MTT viability of normal gingival fibroblasts (HGF); format: cell-based; conditions: 0, 25, 50 and 100 μM, 72 hours, FIG. 7 (A)
Method: (§1) Human normal gingival fibroblasts cells (HGF) and human normal oral keratinocyte cells (OK) were acquired from Department of Dental Hygiene, China Medical University, Taiwan. HGF and OK were cultivated in DMEM.
(§2) Both HGF and OK cells (1×10^4 cells) were placed into a 96-well plate and were incubated with 0, 25, 50 and 100 μM of compound 2-4 for 24, 48 and 72 hours. For incubation with the autophagy inhibitor, cells were pretreated with […] (3-MA, 10 mM) for 1 hour, followed by treatment with or without compound 2-4 (50 and 75 μM) for 48 hours. After washing the cells, DMEM containing MTT (0.5 mg/mL) was added to detect viability. The cell viability was expressed as % of the control.
(§3) In FIG. 7, (A) indicates HGF cells and (B) indicates OK cells after exposure to various concentrations of compound 2-4 for 72 hours. The cell viability is determined by MTT assay and the data shown represent the mean±S.E.M (n=3).

[2] = Biochemical analysis of blood of CAR xenograft mice after 30 days of treatment; format: in vivo, BALB/c nude mice
Method: All mice were monitored the relative toxicity of each group after the animals were sacrificed, and whole blood samples were drawn from the heart for biochemical measurements to evaluate the safety of compound 2-4. Briefly, blood was collected from each mouse and allowed to clot and centrifuged at 1000×g for 10 minutes at room temperature for further biochemical tests including total protein, albumin, creatinine, blood urea nitrogen (BUN), uric acid and glucose.
Furthermore, after 30 days of treatment, these mice were sacrificed and their blood samples were collected for biochemical quantification of total protein, albumin, creatinine, blood urea nitrogen, uric acid and glucose.

Water solubility assay = format: physicochemical; conditions: read-out: Water solubility, Content
Excerpt: The water solubility of the compounds of the present invention can be determined by methods known in the art and the result is shown in Table 3.

CAR cells = assay: MTT assay, antiproliferation on cisplatin-resistant head and neck squamous carcinoma (CAR) cells; format: cell-based, human; conditions: for IC50: Homo sapiens, CAR cells, MTT
Method: The human head and neck carcinoma cell line CAL27 was obtained from American Tissue Culture Collection (ATCC). The cisplatin-resistant cell line CAR (CAL27-cisplatin resistance) was established by clonal selection of CAL27 using 10 cycles of 1 passage treatment with 10-80 μM of cisplatin (Sigma-Aldrich Corp. (St. Louis, Mo., USA) followed by a recovery period of another passage. CAR cells were cultivated in Dulbecco's modified Eagle's medium (DMEM) supplemented with 10% FBS, 100 μg/mL streptomycin, 100 U/mL penicillin G, 2 mM L-glutamine (Gibco by Life Technologies (Carlsbad, Calif., USA)) and 80 μM of cisplatin (Sigma-Aldrich Corp. (St. Louis, Mo., USA).
(§4) Antiproliferations of compound 2-4 were determined by an improved MTT assay. The CAR cells were individually plated at a density of 2×10^4 cells/well onto 96-well plates and treated with Dimethyl sulfoxide (DMSO) alone (0.5% (v/v) in media served as a vehicle control) and various concentrations (0, 25, 50, 75 and 100 μM) of compound 2-4 for 24 and 48 hours. Following the above treatments, the supernatant was discarded before a 100 μL solution of MTT (500 μg/ml) was added to each well for 4 hours at 37 °C. After incubation, the medium was replaced by the addition of 200 μL DMSO to solubilize the violet formazan crystal produced from MTT. The absorbance of the dissolved formazan grained within the cells was measured at 570 nm by a microplate reader to calculate viability (data shown as % of control).
(§5) Please refer to Table 1. Hep3B cells and CAR cells were treated by different concentrations of the compounds of the invention for 48 and 72 hours, and the antiprolifieration effect of such compounds was evaluated using MTT assay. Data are presented as IC50 (μM), the concentration of 50% proliferation-inhibitory effect.
MTT assay was utilized and CAR cells were treated with compound 2-4 in different concentration for 24, 48 and 72 hours. […] The IC50 after 72 hours of treatment was 50 μM.

CAR xenograft = assay: Xenograft antitumor study in CAR xenograft nude mice; format: in vivo, BALB/c nude mice
Excerpt: All animal experiments of the invention complied with institutional guidelines (Affidavit of Approval of Animal Use Protocol) approved by the Institutional Animal Care and Use Committee (IACUC) of China Medical University (Taichung, Taiwan). All pathogen-free four-week-old male BALB/c nude mice were purchased from the National Laboratory Animal Center (Taipei, Taiwan). These animals were housed at a constant room temperature with a regular 12-hour light/12-hour dark cycle and hereafter fed a standard rodent diet and water ad libitum.
The CAR cells (1×10^7 cells/mouse) in 0.2 mL (1:1) cultural medium and Matrigel (BD Biosciences) were subcutaneously injected into the flank of nude mice. When xenograft tumors reached approximately 50 mm^3 (at day 22 after cell inoculation), thirty two mice were randomly divided into four groups with eight mice in each group. The experimental group were given oral treatments included compound 2-4 at the dosages of 25, 50 and 100 mg/kg body weight, respectively, using an everyday 30 times (dosing regimen: QD×30, p.o.); whereas control group were given orally with 30 μL of DMSO throughout the experimental period. The tumor size (mm^3) from each mouse was determined utilizing a caliper by calculating as 0.5×length×(width)^2. At the end of treatment, all animals were anaesthetized by carbon dioxide (CO2) and sacrificed on 31st day. The tumor tissues from each mouse were removed then measured and weighed individually as previously reported.
Compound 2-4 was evaluated in the CAR xenograft nude mice by oral route (p.o.) at dose of 25, 50, and 100 mg/kg/day in a schedule of QD×30. […] At the 100 mg/kg/day dose of compound 2-4, the weight of CAR tumor was reduced down to 22% that of the vehicle control (FIG. 5).

Hep3B cells = assay: MTT assay, antiproliferation on Hep3B cells; format: cell-based; conditions: for IC50: Homo sapiens, Hep3B cells, MTT
Method: as §4, §5
The anti-proliferative ability of compound 2-4 in hepatocellular carcinoma was evaluated in Hep3B cells using MTT assay. Hep3B cells were treated with various concentrations of compound 2-4 for 48 and 72 hours.

[3] = system: human normal oral keratinocyte cells (OK); assay: MTT viability of normal oral keratinocytes (OK); format: cell-based; conditions: 0, 25, 50 and 100 μM, 72 hours, FIG. 7 (B)
Method: as §1, §2, §3

[4] = 25 mg/kg p.o. QD×30, mean ± S.E.M.
[5] = 50 mg/kg p.o. QD×30, mean ± S.E.M.
[6] = 100 mg/kg p.o. QD×30, mean ± S.E.M.

With COc1cc(/C=C/c2ccc(OC(=O)C(C)(CO)CO)cc2)cc(OC)c1 [Compound 2-4, 4-(3,5-dimethoxystyryl)phenyl-3-hydroxy-2-(hydroxymethyl)-2-methylpropanoate] the “cell viability of HGF cells” value [1] was “no viability impact is observed”, the Albumin [2, 4] was 3.666 ± 0.052 g/dL and the Blood urea nitrogen [2, 4] was 28.200 ± 5.784 mg/dL. The Creatinine [2, 4] was 1.133 ± 0.109 mg/dL, the Glucose [2, 4] was 181.333 ± 32.067 mg/dL and the “Total Protein” value [2, 4] was 5.383 ± 0.117 g/dL. The Uric acid [2, 4] was 4.567 ± 0.784 mg/dL, the Albumin [2, 5] was 3.417 ± 0.075 g/dL and the Blood urea nitrogen [2, 5] was 30.950 ± 1.265 mg/dL. For the same compound, the Creatinine [2, 5] was 0.910 ± 0.077 mg/dL, the Glucose [2, 5] was 172.500 ± 6.504 mg/dL and the “Total Protein” value [2, 5] was 5.583 ± 0.376 g/dL. The Uric acid [2, 5] was 5.450 ± 0.878 mg/dL, the Albumin [2, 6] was 3.400 ± 0.089 g/dL and the Blood urea nitrogen [2, 6] was 29.250 ± 3.855 mg/dL. The Creatinine [2, 6] was 0.830 ± 0.128 mg/dL, the Glucose [2, 6] was 196.500 ± 8.643 mg/dL and the “Total Protein” value [2, 6] was 5.283 ± 0.194 g/dL. For the same compound, the Uric acid [2, 6] was 5.050 ± 1.882 mg/dL, the “toxicity when orally administered” value ([2]; CAR xenograft mice, oral, 30 days) was “very low toxicity” and the “blood analysis result versus vehicle control mice” value ([2]; after 30 days of oral treatment, Table 2) was “no significant difference in blood analysis result”. For the same compound, the solubility (Water solubility assay) was 18 µg/mL (≈ 48.3 µM), the “antiproliferative effect on CAR cells” value (CAR cells; 24, 48 and 72 hours, FIG. 1) was “concentration- and time-dependent antiproliferative effect” and the IC50 (CAR cells; 48 hours, read-out: CAR (IC50 (μM)) 48 hours) was 73 µM. For the same compound, the IC50 (CAR cells; 72 hours, Example 18 text, read-out: IC50 after 72 hours of treatment (FIG. 1)) was 50 µM, the IC50 (CAR cells; 72 hours, read-out: CAR (IC50 (μM)) 72 hours) was 45.2 µM and the tumor growth suppression (CAR xenograft; p.o. 25 mg/kg/day, QD×30) was “Significant tumor growth suppression”. The “weight of CAR tumor relative to vehicle control” value (CAR xenograft; p.o. 100 mg/kg/day, QD×30, FIG. 5) was 22%, the “effect on CAR tumor weight” value (CAR xenograft; p.o. 25, 50, 100 mg/kg/day, QD×30, FIG. 5) was “dose-dependent inhibitory effect” and the body weight change (CAR xenograft; p.o. 25, 50, 100 mg/kg/day, QD×30, FIG. 6) was “no significant body weight change”. For the same compound, the “effect on CAR tumor size” value (CAR xenograft; p.o. 25, 50, 100 mg/kg/day, QD×30, FIGS. 3 and 4) was “dose-dependent inhibitory effect”, the “inhibition on cell viability in Hep3B cells” value (Hep3B cells; 48 and 72 hours, FIG. 2) was “concentration-dependent inhibition on cell viability” and the “anticancer activity compared with resveratrol and pterostilbene” value (Hep3B cells; Hep 3B and CAR cells, Table 1) was “more potent anticancer activity than resveratrol and pterostilbene”. For the same compound, the IC50 (Hep3B cells; 48 hours, Example 19 text, read-out: IC50 after 48 hours of treatment (FIG. 2)) was 50 µM, the IC50 (Hep3B cells; 48 hours, read-out: Hep 3B (IC50 (μM)) 48 hours) was 63.5 µM and the IC50 (Hep3B cells; 72 hours, read-out: Hep 3B (IC50 (μM)) 72 hours) was 43.8 µM. The “cell viability of OK cells” value [3] was “no viability impact is observed”.
